Measurements from patent publication US11904057B2, “Nanoparticle-hydrogel composite for nucleic acid molecule delivery” (The United States of America, as represented by the …, priority 2018, dated 2024).

Tests used:
H2052 cells [1] = experiment: Specificity of endocytosis inhibitors (Transferrin / Dextran uptake, flow cytometry); assay type: cell-based, human; conditions: Transferrin and Dextran (70 kD) markers, 1 h
Procedure: FIGS. 10A-10D. Determining the effect of chemical inhibitors on endocytic uptake of Transferrin and Dextran (70 kD), the markers for clathrin-dependent and macropinocytic pathways, in H2052 human mesothelioma cells. Flow cytometric histograms of cells treated with (FIG. 10A) Rhodamine-labeled Transferrin for 1 h in presence or absence of Cytochalasin D, Dynasore, EIPA and cells treated (FIG. 10B) with Rhodamine-labeled Transferrin for 1 h in presence or absence of Cytochalasin D, Dynasore, EIPA. Flow cytometric histograms of cells (FIG. 10C) treated with FITC-labeled Dextran and cells treated with FITC-labeled Dextran (FIG. 10D) for 1 h in presence or absence of Nystatin.
Flow cytometry. In vitro miRNA transfection efficiency of nanoparticles was determined using human mesothelioma cell H2052 (ATCC). For flow cytometry, 1.2×10^5 cells were seeded on 6 well plate 24 h before treatment and allowed to grow under normal culture conditions. FAM (6-carboxyfluorescein, 5′ end)-labeled scrambled miRNA (Thermo Fisher) was complexed with Peptide 1 in a 10:1 N/P ratio according to the protocol described above. Nanoparticles obtained were diluted with optiMEM (Thermo Fisher) to maintain a final miRNA concentration of 40 nM. Complexes of commercial transfection agents (In vivo jet PEI, Polyplus-transfection and DharmaFECT, Dharmacon) and equivalent amount of miRNA were prepared according to manufacturers' instruction. […] To determine the specificity of the inhibitors towards each endocytic pathway in H2052 cells, cellular internalization of Rhodamine or FITC-labeled Transferrin (marker for clathrin mediated uptake, Thermo Fisher) and Rhodamine or FITC-labeled Dextran (70 kD, marker for micropinocytosis, Thermo Fisher) in presence and absence of inhibitors were analyzed with flow cytometry. […] Median fluorescence intensity (MFI) for gated live cell population was determined for cells treated with each inhibitor and normalized with respect to the sample without inhibitor treatment.

[2] = system: FAM-labeled scrambled miRNA; experiment: Fluorescence-based binding assay between peptides and miRNA; conditions: 30 nM FAM-miRNA; peptide vs miRNA molar ratio 0.3125 to 1000; complexed in water, diluted with 25 mM HEPES pH 7.4
Procedure: Binding interactions among peptides and miRNA were studied using a fluorescence measurement. Scrambled miRNA (sequence mismatched with all possible mRNAs in human) labeled with FAM (6-carboxyfluorescein, 5′ end) was mixed with peptides having peptide vs miRNA molar ratio ranging from 0.3125 to 1000. Complexation was first performed in water, followed by dilution of the complex with HEPES (25 mM HEPES, pH 7.4) to keep pH of the suspension unaltered across all peptide concentrations. With increasing mole ratio, FAM fluorescence gradually gets quenched resulting from peptide-mediated condensation. […] Concentrations of Peptide 1 to induce maximum quenching were close to a molar ratio of 50:1 between Peptide 1 and miRNA which corresponds to an N/P ratio (charge ratio) of 10:1. Accordingly, a ratio of 10:1 as the N/P ratio was used for further assessment.
Fluorescence-based binding assay was used to determine interaction between peptides and miRNA. […] FAM fluorophore on miRNA was excited at 490 nm and emission at 520 nm was recorded using a microplate reader (Tecan Infinite 200) with a band-pass filter of 20 nm. A PTI fluorimeter was used to record fluorescence spectrum for Peptide 1/miRNA nanoparticles at N/P ratio 10:1 (molar ratio of 50:1, Peptide 1 vs miRNA) in the emission range of 500-700 nm.

[3] = Circular dichroism spectroscopy of Peptide 1 with miRNA / heparin; assay type: physicochemical
Procedure: Circular Dichroism Spectroscopy. Secondary structure of Peptide 1 in presence or absence of added miRNA was determined using Circular Dichroism (CD) spectroscopy. For recording CD spectra in water, 150 μL from the aqueous solutions of Peptide 1 was mixed with 150 μL of an aqueous solution of scrambled miRNA to maintain peptide vs miRNA N/P ratios at 10:1, 5:1, 2:1 and 1:1. These N/P ratios correspond to peptide vs miRNA mole ratios of 50:1, 25:1, 10:[…], respectively. Nanoparticles and soluble peptides of 300 μL total volume were equilibrated for 30 min at 37° C. with agitation. Final concentration of miRNA was maintained at 5 μM. Samples were transferred into a quartz cell of path-length 1 mm and data collection were initiated immediately. Ellipticity was measured over a wavelength range of 190-260 nm at 37° C., using 1 nm step size and a set of 3-5 scans. Raw data was corrected by subtracting the absorbance of samples from those of miRNA and converted to mean residue ellipticity using the equation: [θ]=θobs/(10*l*c*r) where θobs is the measured ellipticity (mdeg), l is the path length (0.1 cm), c is the concentration of peptide (determined from UV absorbance at 220 nm) and r corresponds to the number of amino acid residues in the peptide. […]

[4] = Hydrogel composite formation with different hydrogelating peptides; assay type: physicochemical; conditions: 24 h post-assembly, irrespective of nanoparticle loaded
Procedure: Preparation and characterization of hydrogel composites. Required amount of miRNA was diluted in water and mixed with an aqueous solution of Peptide 1 in a 10:1 N/P ratio to maintain a final volume of 25 μL. The suspension was incubated for 30 min at 37° C. with constant agitation and the resulting nanoparticles were mixed with 25 μL of chilled 2×HBS (50 mM HEPES 300 mM NaCl, pH 7.4). 50 μL of 1% (w/v) solution of a hydrogelating peptide (Peptides 1, 2, 3 and 4) was prepared in a chilled 25 mM HEPES (pH 7.4), mixed with an equal volume of nanoparticle suspension and incubated at 37° C. for overnight to afford 0.5 wt % hydrogel composites. Gel composites containing 1% of hydrogelating peptide was also prepared similarly. For Transmission Electron Microscopy of gel composites, ˜4 μL of the sample was deposited onto 200 mesh carbon coated copper grids and allowed to adhere for 30 seconds. The excess sample was removed with a filter paper. Uranyl acetate (5 μL) was used to stain the grids for 30 seconds. Grids were dried for 2-3 minutes. Images were acquired using a Tecnai T12 transmission electron microscope.

H2052 cells [5] = experiment: LDH cytotoxicity assay; assay type: cell-based, human; conditions: 4 h post-incubation
Procedure: LDH assay kit (Roche) was used to determine any possible cytotoxicity of Peptide 1/miRNA nanoparticles and soluble Peptide 1. Cell supernatant was taken out after 4 h of treatment and a reaction mixture containing diaphorase/NAD+/iodotetrazolium chloride/sodium lactate was added following manufacturer's instructions to detect any released LDH (Lactate Dehydrogenase). Triton X-100 at a final concentration was used as a high control for maximal releasable LDH, while untreated cells were taken as low control for spontaneous LDH release. Absorbance was measured at 490 nm after 5 minutes of incubation at 37° C. Cytotoxicity was calculated using the equation: (Absorbance^treated−Absorbance^low control/Absorbance^high control−Absorbance^low control)×100.

Molecule	Endocytic pathway inhibited (H2052 cells [1])	Extent of quenching of FAM fluorescence (peptide-mediated condensation of miRNA) [2]	further results
C=C1[C@@H](C)[C@H]2[C@H](Cc3ccccc3)NC(=O)[C@]23[C@H](OC(C)=O)/C=C/[C@@](C)(O)C(=O)[C@@H](C)C/C=C/[C@H]3[C@@H]1O [Cytochalasin D]	inhibitors for clathrin-dependent pathways	–	–
O=C(N/N=C/c1ccc(O)c(O)c1)c1cc2ccccc2cc1O [Dynasore]	inhibitors for clathrin-dependent pathways	–	–
CCN(c1nc(N)c(C(=O)NC(=N)N)nc1Cl)C(C)C [EIPA]	selective inhibitor of micropinocytosis	–	–
VKVKVKVKV^DPPTKVKVKVKV-NH2 [Peptide 1]	–	maximal	Folding into a β-hairpin structure in the nanoparticles ([3]; N/P ratio 10:1, water): not enough to induce any significant folding; Heparin concentration at which evolution of β-sheet structure starts ([3]; Peptide 1 complexed with miRNA at N/P 10:1, water, 37° C.): 50 µg/mL; Formation of gel-like material when used as self-assembling peptide [4]: does not form a gel-like material; Cytotoxicity as compared to positive control Triton X-100 (H2052 cells [5]): 20%
VLTKVKTKV^DPPTKVEVKVLV-NH2 [Peptide 3]	–	not able to promote significant condensation of miRNA	–
